Results from patent US6121326A, “Substituted alkyltetraamine derivatives” (Nippon Zoki Pharmaceutical Co., Ltd., priority 2000, dated 2000).

System: Substance P
Assay: Tachykinin antagonistic action: suppression of substance P-induced contraction of isolated guinea pig ileum
Design: species or system guinea pig (Hartley strain, male)
Settings: isotonic contraction, substance P 10^-8 M, 10 minutes treatment with test drug
Experimental: The compounds of the present invention were tested by an assay using ileum isolated from guinea pigs. Male guinea pigs of the Hartley strain (400 g to 500 g) were fainted and bled out. Then, ileum was isolated and hung in an organ bath filled with a nutritive solution. After an equilibration for 60 minutes, isotonic contraction was recorded. Substance P, a tachykinin agonist, was administered in a dose of 10^-8 M every 15 minutes. Administration of substance P was repeated for 3 to 4 times and it was confirmed that a contraction height for each run became constant. The constant contraction was used as a control. A treatment with the test drug was carried out for 10 minutes and then substance P was administered again and a concentration vs. action curve was prepared. A 50% suppression concentration (lC50) was determined from the concentration vs. action curve of the test drug. The compound of the present invention was used as a test drug and an example of the result of its antagonistic action to substance P is shown in Table 1: […]

SMILES | IC50
CC(=O)Oc1ccc(/C=C/C(=O)NCCCN(CCCCN(CCCNC(=O)/C=C/c2ccc(OC(C)=O)cc2)C(=O)/C=C/c2ccc(OC(C)=O)cc2)C(=O)/C=C/c2ccc(OC(C)=O)cc2)cc1 [Compound 1, N1,N5,N10,N14-Tetrakis[3-(4-acetoxyphenyl)-2-propenoyl]tetraazatetradecane] | 14 nM
O=C(/C=C/c1ccc(O)cc1)NCCCN(CCCCN(CCCNC(=O)/C=C/c1ccc(O)cc1)C(=O)/C=C/c1ccc(O)cc1)C(=O)/C=C/c1ccc(O)cc1 [Compound 2, N1,N5,N10,N14-Tetrakis[3-(4-hydroxyphenyl)-2-propenoyl]tetraazatetradecane] | 11 nM
COc1cc(/C=C/C(=O)NCCCN(CCCCN(CCCNC(=O)/C=C/c2ccc(OC(C)=O)c(OC)c2)C(=O)/C=C/c2ccc(OC(C)=O)c(OC)c2)C(=O)/C=C/c2ccc(OC(C)=O)c(OC)c2)ccc1OC(C)=O [Compound 3, N1,N5,N10,N14-Tetrakis[3-(4-acetoxy-3-methoxyphenyl)-2-propenoyl]tetraazatetradecane] | 710 nM
COc1cc(/C=C/C(=O)NCCCN(CCCCN(CCCNC(=O)/C=C/c2ccc(O)c(OC)c2)C(=O)/C=C/c2ccc(O)c(OC)c2)C(=O)/C=C/c2ccc(O)c(OC)c2)ccc1O [Compound 4, N1,N5,N10,N14-Tetrakis[3-(4-hydroxy-3-methoxyphenyl)-2-propenoyl]tetraazatetradecane] | 580 nM
